In patent publication US12544395B2, “Combination compositions comprising a beta-lactamase inhibitor and uses thereof” (priority 2018, dated 2026):
Converted amounts (≈) assume the structure as drawn. Values belong to the compound of their own block, whether it stands above or below them.

Tests used:
[1] = system: E. coli 1924; test: Broth microdilution MIC (strain enzymes: TEM-12); format: cell-based; settings: alone
[2] = system: E. coli 2806; test: Broth microdilution MIC (strain enzymes: SHV-12, TEM-1); format: cell-based; settings: alone
[3] = system: E. coli 3174; test: Broth microdilution MIC (strain enzymes: TEM-1, CTXM-15); format: cell-based; settings: alone
[4] = system: E. coli 3327; test: Broth microdilution MIC (strain enzymes: TEM-1, SHV-12); format: cell-based; settings: alone
[5] = system: E. coli SI-AIRT-4; test: Broth microdilution MIC (strain enzymes: TEM-1); format: cell-based; settings: alone
[6] = system: E. coli SI-NO36; test: Broth microdilution MIC (strain enzymes: SHV-11, TEM-1); format: cell-based; settings: alone
[7] = system: E. coli SI-PBLII; test: Broth microdilution MIC (strain enzymes: CTX-M2, TEM-1); format: cell-based; settings: alone
[8] = system: E. coli SI-V502; test: Broth microdilution MIC (strain enzymes: TEM-29, CTX-M15); format: cell-based; settings: alone
[9] = system: E. coli 25922; test: Broth microdilution MIC (strain enzymes: None detected); format: cell-based; settings: alone
[10] = system: K. oxytoca 176877; test: Broth microdilution MIC (strain enzymes: SHV-105); format: cell-based; settings: alone
[11] = system: K. oxytoca 496 #2; test: Broth microdilution MIC (strain enzymes: SHV-105, TEM-1); format: cell-based; settings: alone
[12] = system: K. pneumoniae 115468; test: Broth microdilution MIC (strain enzymes: TEM-1); format: cell-based; settings: alone
[13] = system: K. pneumoniae 153239; test: Broth microdilution MIC (strain enzymes: SHV-11, TEM-1); format: cell-based; settings: alone
[14] = system: K. pneumoniae 304487; test: Broth microdilution MIC (strain enzymes: SHV-12,TEM-1); format: cell-based; settings: alone
[15] = system: K. pneumoniae 329633; test: Broth microdilution MIC (strain enzymes: SHV-5, TEM-1); format: cell-based; settings: alone
[16] = system: K. pneumoniae 11/23 LF#2; test: microbe, parasite or virus in culture; format: cell-based; settings: alone
[17] = system: K. pneumoniae ESBL 10; test: Broth microdilution MIC (strain enzymes: SHV-12, TEM-1); format: cell-based; settings: alone
[18] = system: K. pneumoniae ESBL 8 #1; test: Broth microdilution MIC (strain enzymes: TEM-1, SHV-12); format: cell-based; settings: alone
[19] = system: K. pneumoniae ESBL 8 #2; test: Broth microdilution MIC (strain enzymes: SHV-12, TEM-1); format: cell-based; settings: alone
[20] = system: K. pneumoniae KI (KCl); test: Broth microdilution MIC (strain enzymes: TEM-10); format: cell-based; settings: alone
[21] = system: panel of ESBL-producing Enterobacteriaceae (40 strains); test: Broth microdilution MIC50/MIC90 summary over the panel; format: cell-based; settings: No BLI
[22] = Excipient screening: solubility in SEDDS excipients; format: physicochemical; settings: thermodynamic from solid
Procedure: The solubility of Compound 1-ethanolate was evaluated in a series of pharmaceutically acceptable excipients that are commonly used to prepare self-emulsifying drug delivery systems (SEDDS) for oral drug delivery. This class of formulation results in a solid solution of drug substance and excipients that enable the delivery of the drug substance and prevents precipitation upon contact with aqueous environments (i.e. the stomach). The indicated quantity of Compound 1-ethanolate was weighed into a 3 mL screw top glass vial outfitted with a magnetic stir bar. The vial was transferred to a controlled temperature heating block and 100 μL aliquots of each excipient was added with stirring. After each addition, the sample was evaluated for dissolution of the drug substance and additional aliquots of excipient were added until a clear, colorless solution was obtained. Table 22 summarizes the solubility screening for 25 excipients.

Compound: CC1=C(C(=O)O)N2C(=O)[C@@H](NC(=O)[C@H](N)c3ccccc3)[C@H]2SC1 [Cephalexin, cefalexin, reference compound]
MIC of cefalexin (LEX) [1]: 2 µg/mL
MIC of cefalexin (LEX) [2]: 4 µg/mL
MIC of cefalexin (LEX) [3]: 1 µg/mL
MIC of cefalexin (LEX) [4]: 16 µg/mL
MIC of cefalexin (LEX) [5]: 0.25 µg/mL
MIC of cefalexin (LEX) [6]: 4 µg/mL
MIC of cefalexin (LEX) [7]: 2 µg/mL
MIC of cefalexin (LEX) [8]: 2 µg/mL
MIC of cefalexin (LEX) [9]: 0.5 µg/mL
MIC of cefalexin (LEX) [10]: 8 µg/mL
MIC of cefalexin (LEX) [11]: 16 µg/mL
MIC of cefalexin (LEX) [12]: 8 µg/mL
MIC of cefalexin (LEX) [13]: 2 µg/mL
MIC of cefalexin (LEX) [14]: 8 µg/mL
MIC of cefalexin (LEX) [15]: 16 µg/mL
MIC of cefalexin (LEX) [16]: 2 µg/mL
MIC of cefalexin (LEX) [17]: 16 µg/mL
MIC of cefalexin (LEX) [18]: 16 µg/mL
MIC of cefalexin (LEX) [19]: 16 µg/mL
MIC of cefalexin (LEX) [20]: 1 µg/mL
Cephalexin MIC50 [21]: >32 µg/mL
Cephalexin MIC90 [21]: >32 µg/mL

solubility ([22]; 50 °C, oil or lipid, Labrafil M1944CS (Oleoyl polyoxyl-6 glycerides)): > 140 mg/mL
solubility ([22]; 50 °C, oil or lipid, Labrafil M2125C5 (Linoleoyl polyoxyl-6 glycerides)): > 152 mg/mL
solubility ([22]; 50 °C, oil or lipid, Plurol Oleique CC497 (Polyglyceryl-3 dioleate)): > 375 mg/mL
solubility ([22]; 50 °C, organic solvent or mixture, Gelucire 44/14 (Lauroyl polyoxyl-32 glycerides)): > 284 mg/mL
solubility ([22]; 50 °C, organic solvent or mixture, Kolliphor EL (Polyoxyl 35 hydrogenated castor oil)): > 376 mg/mL
solubility ([22]; 50 °C, organic solvent or mixture, Kolliphor RH (PEG-40 Hydrogenated Castor Oil)): ~172 mg/mL (≈ 410 mM)
solubility ([22]; 50 °C, organic solvent or mixture, Labrasol (Caprylocaproyl polyoxyl-8 glycerides)): > 585 mg/mL
solubility ([22]; 50 °C, organic solvent or mixture, Polysorbate 80 (Polyoxyethylene (20) sorbitan monooleate)): > 238 mg/mL
solubility ([22]; Capmul MCM (Caprylic/capric mono- & diglycerides), 50 °C, oil or lipid): > 351 mg/mL
solubility ([22]; Ethanol, 50 °C, organic solvent or mixture): > 568 mg/mL
solubility ([22]; Glycerol, 50 °C, organic solvent or mixture): < 55.8 mg/mL
solubility ([22]; Lauroglycol (Propylene Glycol Monolaurate), neat excipient, 50 °C, oil or lipid): > 292 mg/mL
solubility ([22]; Maisine CC (glyceryl monolinoleate), 50 °C, oil or lipid): > 368 mg/mL
solubility ([22]; Myrj 52 (PEG-40 Stearate), neat excipient, 50 °C, organic solvent or mixture): > 277 mg/mL
solubility ([22]; PEG-400, 50 °C, organic solvent or mixture, PEG-400, 50° C.): > 498 mg/mL
solubility ([22]; PEG-1500, 50 °C, organic solvent or mixture, PEG-1500, 50° C.): > 382 mg/mL
solubility ([22]; PEG-3350, 65 °C, organic solvent or mixture, PEG-3350, 65° C.): > 280 mg/mL
solubility ([22]; Peceol (Glyceryl monooleate), neat excipient, 50 °C, oil or lipid): > 413 mg/mL
solubility ([22]; Phosal 50 PG (50% PC and propylene glycol), 50 °C, oil or lipid): > 419 mg/mL
solubility ([22]; Poloxamer 188, neat excipient, 65 °C, organic solvent or mixture, Poloxamer 188): > 225 mg/mL
solubility ([22]; Propylene Glycol, 50 °C, organic solvent or mixture): > 1210 mg/mL
solubility ([22]; Span 20 (Sorbitan monolaurate), neat excipient, 50 °C, organic solvent or mixture): > 227 mg/mL
solubility ([22]; Span 80, 50 °C, organic solvent or mixture, Span 80, 50° C.): > 276 mg/mL
solubility ([22]; TPGS, neat excipient, 50 °C, organic solvent or mixture): > 229 mg/mL
solubility ([22]; Triacetin (glycerin triacetate), 50 °C, organic solvent or mixture): > 84.2 mg/mL
Compound: CCOB1Oc2c(cccc2C(=O)OCOC(=O)C(CC)CC)C[C@@H]1NC(=O)CC [Compound 1-ethanolate, ((2-ethylbutanoyl)oxy)methyl (R)-2-ethoxy-3-propionamido-3,4-dihydro-2H-benzo[e][1,2]oxaborinine-8-carboxylate]
